In US6682908B1, “Mouse growth hormone secretagogue receptor” (Merck & Co., Inc., priority 1998, dated 2004):

Molecular target: T1, mouse GHS-R (Mus musculus, UniProt Q99P50)
T1 construct: the complete and contiguous open reading frame of mGHS-R; expressed in transfected cells; host or cells: 293-AEQ17 (aequorin-expressing reporter cell line), transiently transfected with pcDNA-3/mouse GHS-R
Experiment: aequorin bioluminescence assay of mouse GHS-R expressed in 293-AEQ17 cells
Assay type: cell-based
Conditions: expression of the complete and contiguous open reading frame of mGHS-R; aequorin biolumenescence assay
Method: The mouse isoform of the previously identified GHS-R was cloned from two genomic DNA libraries for the generation of a GHS-R knock-out mouse.
The cells were harvested, washed once in ECB medium and resuspended to 500,000 cells/ml. One hundred (100) […] of cell suspension (corresponding to 5×10^4 cells) was then injected into each well of a 96-well microtiter test plate, and the integrated light emission was recorded over 30 seconds, in 0.5 second units. Twenty (20) μl of lysis buffer (0.1% final Triton X-100 concentration) was then injected and the integrated light emission recorded over 10 seconds, in 0.5 second units. The “fractional response” values for each well were calculated by taking the ratio of the integrated response to the initial challenge to the total integrated luminescence including the Triton X-100 lysis response. Data were analyzed using GraphPad Prism software V.2.0 (GraphPad Software, San Diego, Calif.).

T1 sequence (Q99P50 whole entry): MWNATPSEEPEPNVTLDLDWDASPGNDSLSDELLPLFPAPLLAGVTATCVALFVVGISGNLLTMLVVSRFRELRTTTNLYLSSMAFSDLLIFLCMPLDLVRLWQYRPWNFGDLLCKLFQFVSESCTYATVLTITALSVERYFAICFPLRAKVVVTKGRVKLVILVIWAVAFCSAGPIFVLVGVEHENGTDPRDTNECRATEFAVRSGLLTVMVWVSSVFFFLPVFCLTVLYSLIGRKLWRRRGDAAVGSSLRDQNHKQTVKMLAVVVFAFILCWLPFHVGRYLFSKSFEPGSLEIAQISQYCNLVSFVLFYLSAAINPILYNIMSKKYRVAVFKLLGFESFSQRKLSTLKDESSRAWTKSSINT

| Compound | functional activation of mGHS-R |
| --- | --- |
| GHRP-6 | functionally activated |
| CC(C)(N)C(=O)N[C@H](COCc1ccccc1)C(=O)N1CCC2(CC1)CN(S(C)(=O)=O)c1ccccc12 [MK-0677] | functionally activated |
